For series [1], the system named is Vesicular Stomatitis Virus (VSV). Type of series: cell-based.
Another series deals with anthrax toxin. The class given is cell-based, human. The conditions noted are these: RPE1 cells, 1 µM overnight.
The subject of series [2] is CerS3 cells lacking the indicated genes. Description: Yeast growth assay of CerS3 cells lacking genes identified as hypersensitive by SATAY. The conditions noted are these: 2.5 µM; 48 h at 30°C.
The subject of another series is yeast cells. Description: Yeast growth assay (ten-fold serial dilution spotting) of WT yeast with empty vector or expressing mammalian ceramide synthases. The conditions noted are these: 48 h at 30°C.

Like-named read-outs stand apart in the source and are kept apart here.

Take `C#CCCCCCCCCCCCCCC(O)C(C)N` (centres unmarked) [Formula 2, 2-aminooctadec-17-yn-3-ol]: in the series on HeLaMZ cells (0.2-2 µM), the “toxicity (cell number by DAPI nuclei count)” value is listed as “very little toxicity”.
As to `CCCCCCCCCCCCCCCC(O)C(C)N` (centres unmarked) [Formula 1, 2-aminooctadecan-3-ol], the “inhibition of viral infection, concentration dependence” value in series [1] is “Concentration dependent inhibition”. Moreover, the “viral infection (GFP-positive cells)” value in series [1] is on record as “reduced viral infection”. For the same molecule, the “reduction of viral infectivity” value in series [1] (1 µM) was “substantial”. Further, the “toxicity (cell count by DAPI-based nuclei count)” value in the series on HeLaMZ cells is listed as “not toxic”. Besides, in the series on HeLaMZ cells (at 1µM), the “toxicity (cell number by DAPI nuclei count)” value is “starts to show some toxicity”. Besides, the LF activity entry with anthrax toxin (500 ng/ml PA83 and 50 ng/ml LF) is listed as “prevented”. Further, the “PA processing (PA83 to PA63, heptamer formation)” value in the series on anthrax toxin (500 ng/ml PA83 and 50 ng/ml LF) was “unaffected”. The “MEK1(N) cleavage” value in the series with anthrax toxin (control cleaved within 90 to 120 min) is on record as “stabilized”. Further, in the series on RPE1 cells, the cellular toxicity entry is “not toxic”. Moreover, the “sensitivity of the mutants (colony size and density)” value in series [2] is “slightly more sensitive”. Moreover, the “sensitivity (colony size and density)” value in the series on yeast cells (WT+CerS1, 5 to 20 µM) is “insensitive”; in the series on yeast cells (WT+CerS2, 5 to 20 µM), “insensitive”; with yeast cells (WT+CerS3, already at 5 µM), “highly sensitive”; in the series with yeast cells (WT+CerS4, 5 to 20 µM) it was “insensitive”; in the series with yeast cells (WT+CerS5, 10 µM) it was “mildly sensitive”; in the series on yeast cells (WT+CerS5, 20 µM) it was “highly sensitive”. Besides, the “sensitivity (colony size and density)” value in the series on yeast cells (WT+CerS6, 10 µM) is reported as “mildly sensitive”; in the series on yeast cells (WT+CerS6, 20 µM) it was “highly sensitive”; with yeast cells (WT+EV (empty vector), 5 to 20 µM) it was “insensitive”.
